Patent publication US9353082B2, “Pharmaceutical compounds” (BIAL—PORTELA & CA, S.A., priority 2008, dated 2016)

Biological target: T1, FAAH (Rattus norvegicus, UniProt P97612)
T1 construct: Frozen brains (without cerebellum) from Wistar rats were used; from tissue; host or cells: Wistar rat brain (without cerebellum), washed membrane pellets
T1 sequence (P97612 1-579): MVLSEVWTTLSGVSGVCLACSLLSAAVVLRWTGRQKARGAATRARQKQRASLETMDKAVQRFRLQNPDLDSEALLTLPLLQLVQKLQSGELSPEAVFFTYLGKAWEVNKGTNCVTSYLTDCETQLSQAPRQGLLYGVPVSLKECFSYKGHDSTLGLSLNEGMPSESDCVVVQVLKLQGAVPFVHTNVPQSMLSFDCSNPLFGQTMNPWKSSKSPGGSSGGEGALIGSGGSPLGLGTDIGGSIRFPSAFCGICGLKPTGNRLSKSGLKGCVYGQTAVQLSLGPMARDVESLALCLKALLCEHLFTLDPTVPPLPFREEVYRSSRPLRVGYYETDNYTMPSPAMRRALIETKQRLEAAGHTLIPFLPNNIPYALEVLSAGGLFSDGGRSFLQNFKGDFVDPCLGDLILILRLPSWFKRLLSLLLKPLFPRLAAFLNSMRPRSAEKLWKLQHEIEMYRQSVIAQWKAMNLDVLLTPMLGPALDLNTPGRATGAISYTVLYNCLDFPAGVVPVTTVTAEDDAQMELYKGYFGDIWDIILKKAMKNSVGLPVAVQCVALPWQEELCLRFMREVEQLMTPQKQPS
Test: In vitro FAAH activity in rat brain membranes, 3H-AEA substrate, % of control
Format: biochemical, Wistar rats
Conditions: low value = strong inhibitor; for In Vitro FAAH activity, 100 nM: 100 nM test compound; for In Vitro FAAH activity, 10 uM: 10 uM test compound
In short: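 Wistar rat brain membranes (5 μg protein) preincubated 15 min at 37 °C with compound at 10 μM or 0.1 μM (0.1% DMSO), then 2 μM AEA including 3H-AEA with 0.1% BSA, Tris pH 7.6, 10 min. 3H-ethanolamine counted after charcoal stop; % of no-compound control after blank subtraction.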

| Structure (SMILES) | In Vitro FAAH activity, 100 nM | further results |
| --- | --- | --- |
| CC(C)N(Cc1ccccc1)C(=O)n1cnc(-c2cccc(O)c2)c1 [Compound 265, N-benzyl-4-(3-hydroxyphenyl)-N-isopropyl-1H-imidazole-1-carboxamide] | 99.6 % of control |  |
| CN(C(=O)n1cnc(-c2ccc(Cl)cc2)c1)C1CCCC1 [Compound 244, 4-(4-chlorophenyl)-N-cyclopentyl-N-methyl-1H-imidazole-1-carboxamide] | 5.4 % of control |  |
| CN(C(=O)n1cnc(-c2cccs2)n1)c1ccccc1 [Compound 180, N-methyl-N-phenyl-3-(thiophen-2-yl)-1H-1,2,4-triazole-1-carboxamide] | 57.5 % of control |  |
| O=C(N1CCC2(CC1)OCCO2)n1cnc(-c2ccc(Cl)cc2)n1 [Compound 204, (3-(4-chlorophenyl)-1H-1,2,4-triazol-1-yl)(1,4-dioxa-8-azaspiro[4.5]decan-8-yl)methanone] | 15.8 % of control |  |
| CN(C(=O)n1nnc2ccccc21)C1CCCC1 [Compound 266, N-cyclopentyl-N-methyl-1H-benzo[d][1,2,3]triazole-1-carboxamide] | 0.2 % of control |  |
| CC1CC(C)CN(C(=O)n2nnc3ccccc32)C1 (stereo not drawn) [Compound 175, (1H-benzo[d][1,2,3]triazol-1-yl)(3,5-dimethylpiperidin-1-yl)methanone] | 21 % of control |  |
| O=C(N1CCCCCC1)n1nnc2ccccc21 [Compound 172, azepan-1-yl(1H-benzo[d][1,2,3]triazol-1-yl)methanone] | 0.3 % of control |  |
| COc1ccc(-c2ncn(C(=O)N3CCOCC3)n2)cc1 [Compound 65, (3-(4-methoxyphenyl)-1H-1,2,4-triazol-1-yl)(morpholino)methanone] | 86.5 % of control |  |
| CN(C(=O)n1ccc(-c2ccccc2)n1)c1ccccc1 [Compound 12, N-methyl-N,3-diphenyl-1H-pyrazole-1-carboxamide] |  | In Vitro FAAH activity, 10 uM: 86 % of control |
| O=C(N1CCC(Oc2ccc(OCc3ccccc3)cc2)CC1)n1nnc2ccccc21 [Compound 164, (1H-benzo[d][1,2,3]triazol-1-yl)(4-(4-(benzyloxy)phenoxy)piperidin-1-yl)methanone] | 0.3 % of control |  |
| O=C(N1CCC(Oc2ccc(Cl)cc2)CC1)n1nnc2ccccc21 [Compound 117, (1H-benzo[d][1,2,3]triazol-1-yl)(4-(4-chlorophenoxy)piperidin-1-yl)methanone] | 0.1 % of control |  |
| CN(C)C(=O)n1cnc(-c2ccc(Oc3ccc(C(N)=O)cc3)cc2)n1 [Compound 146, 3-(4-(4-carbamoylphenoxy)phenyl)-N,N-dimethyl-1H-1,2,4-triazole-1-carboxamide] | 77.1 % of control |  |
| CN(Cc1ccc(F)cc1)C(=O)n1nnc2ccccc21 [Compound 130, N-(4-fluorobenzyl)-N-methyl-1H-benzo[d][1,2,3]triazole-1-carboxamide] | 0 % of control |  |
| O=C(N1CCCC1)n1cnc(-c2ccc(Cl)c(Cl)c2)c1 [Compound 218, (4-(3,4-dichlorophenyl)-1H-imidazol-1-yl)(pyrrolidin-1-yl)methanone] | 31.6 % of control |  |
| O=C(Nc1ccc(Cl)cc1)n1nnc2ccccc21 [Compound 62, N-(4-chlorophenyl)-1H-benzo[d][1,2,3]triazole-1-carboxamide] | 93.7 % of control |  |
| CC(C)(C)N(Cc1ccccc1)C(=O)n1cnc(-c2ccccc2)c1 [Compound 251, N-benzyl-N-tert-butyl-4-phenyl-1H-imidazole-1-carboxamide] | 91.7 % of control |  |
| N#Cc1ccc(Oc2ccc(-c3ncn(C(=O)N4CCOCC4)n3)cc2)cc1 [Compound 141, 4-(4-(1-(morpholine-4-carbonyl)-1H-1,2,4-triazol-3-yl)phenoxy)benzonitrile] | 15.9 % of control |  |
| O=C(N1CCN(c2ccccc2)CC1)n1cnc(-c2ccccc2)c1 [Compound 101, (4-phenyl-1H-imidazol-1-yl)(4-phenylpiperazin-1-yl)methanone] | 0.5 % of control |  |
| O=C(N1CCC(OCc2ccccc2)CC1)n1nnc2ccccc21 [Compound 128, (1H-benzo[d][1,2,3]triazol-1-yl)(4-(benzyloxy)piperidin-1-yl)methanone] | 0 % of control |  |

| Structure (SMILES) | In Vitro FAAH activity, 100 nM | further results |
| --- | --- | --- |
| O=C(N1CCOCC1)n1cc(-c2ccccc2)nn1 [Compound 89, morpholino(4-phenyl-1H-1,2,3-triazol-1-yl)methanone] | 4.5 % of control |  |
| O=C(Nc1ccccc1)n1ccc(-c2ccccc2)n1 [Compound 5, N,3-diphenyl-1H-pyrazole-1-carboxamide] |  | In Vitro FAAH activity, 10 uM: 91.3 % of control |
| CN(C(=O)n1cnc(-c2ccccc2)n1)C1CCCCC1 [Compound 283, N-cyclohexyl-N-methyl-3-phenyl-1H-1,2,4-triazole-1-carboxamide] |  | In Vitro 100 nM (FAAH activity, % of control) (rat brain membranes, compound at 100 nM): 75.1 % of control |
| CN(C(=O)n1cnc(-c2ccc(F)cc2F)n1)c1ccc(F)cc1F [Compound 80, N,3-bis(2,4-difluorophenyl)-N-methyl-1H-1,2,4-triazole-1-carboxamide] | 89.5 % of control |  |
| O=C(Nc1ccc(-c2ccccc2)cc1)n1nnc2ccccc21 [Compound 88, N-(biphenyl-4-yl)-1H-benzo[d][1,2,3]triazole-1-carboxamide] | 105.4 % of control |  |
| CC1(C)OCCN1C(=O)n1cnc(-c2ccccc2)c1Cl [Compound 268, (5-chloro-4-phenyl-1H-imidazol-1-yl)(2,2-dimethyloxazolidin-3-yl)methanone] | 104.1 % of control |  |
| CN(Cc1ccccc1)C(=O)n1cnc(-c2cccs2)n1 [Compound 181, N-benzyl-N-methyl-3-(thiophen-2-yl)-1H-1,2,4-triazole-1-carboxamide] | 0.9 % of control |  |
| CCCCCCCCCCCCNC(=O)n1nnc2ccccc21 [Compound 86, N-dodecyl-1H-benzo[d][1,2,3]triazole-1-carboxamide] | 0 % of control |  |
| O=C(N1CCOC1c1ccccc1)n1cnc(-c2ccc(Cl)cc2)c1 (stereo not drawn) [Compound 241, (4-(4-chlorophenyl)-1H-imidazol-1-yl)(2-phenyloxazolidin-3-yl)methanone] | 76.5 % of control |  |
| CC(C)N(Cc1ccccc1)C(=O)n1cnc(-c2ccc(Cl)cc2)c1 [Compound 249, N-benzyl-4-(4-chlorophenyl)-N-isopropyl-1H-imidazole-1-carboxamide] | 95.8 % of control |  |
| CN(C(=O)n1nnc2ccccc21)[C@H]1CC[C@H](OCc2ccccc2)CC1 [Compound 152, N-((1r,4r)-4-(benzyloxy)cyclohexyl)-N-methyl-1H-benzo[d][1,2,3]triazole-1-carboxamide] | 1.3 % of control |  |
| CN(C(=O)n1cncn1)c1ccccc1 [Compound 7, N-methyl-N-phenyl-1H-1,2,4-triazole-1-carboxamide] | 17 % of control | In Vitro FAAH activity, 10 uM: 0 % of control |
| COc1cccc(-c2cn(C(=O)N(Cc3ccccc3)C(C)C)cn2)c1 [Compound 255, N-benzyl-N-isopropyl-4-(3-methoxyphenyl)-1H-imidazole-1-carboxamide] | 96.7 % of control |  |
| CN(C(=O)n1cnc(-c2ccccc2F)c1)c1ccc(F)cc1 [Compound 45, 4-(2-fluorophenyl)-N-(4-fluorophenyl)-N-methyl-1H-imidazole-1-carboxamide] | 83 % of control |  |
| Cl.O=C(N1CCN(Cc2ccccc2)CC1)n1cnc(-c2ccccc2)n1 [Compound 124, (4-benzylpiperazin-1-yl)(3-phenyl-1H-1,2,4-triazol-1-yl)methanone hydrochloride] | 1.5 % of control |  |
| CN(CCc1ccccc1)C(=O)n1nnc2ccccc21 [Compound 115, N-methyl-N-phenethyl-1H-benzo[d][1,2,3]triazole-1-carboxamide] | 0 % of control |  |
| O=C(Nc1ccccc1)n1nnc2ccccc21 [Compound 60, N-phenyl-1H-benzo[d][1,2,3]triazole-1-carboxamide] | 93.8 % of control |  |
| CC1(C)COCN1C(=O)n1c(Cl)nc(-c2ccc(Cl)cc2)c1Cl [Compound 269, (2,5-dichloro-4-(4-chlorophenyl)-1H-imidazol-1-yl)(4,4-dimethyloxazolidin-3-yl)methanone] | 106.2 % of control |  |
| CCOc1cccc(-c2cccc(-c3cn(C(=O)N(C)C4CCCCC4)cn3)c2)c1 [Compound 258, N-cyclohexyl-4-(3'-ethoxybiphenyl-3-yl)-N-methyl-1H-imidazole-1-carboxamide] | 39.9 % of control |  |
